Laboratory results published in US20110230659A1, “CYCLOBUTYL PURINE DERIVATIVE, ANGIOGENESIS PROMOTING AGENT, LUMEN FORMATION PROMOTING AGENT, NEUROCYTE GROWTH PROMOTING AGENT, AND DRUG” (NATIONAL UNIVERSITY CORPORATION KAGAWA UNIVERSITY, priority 2008, published 2011).

Assays:
ERK = ERK activation (phosphorylation) immunoblot in HUVEC; format: cell-based, human
Method: First, to a HuMedia-EB2 medium (Kurabo) to which 2 v/v % inactivated fetal bovine serum (FBS) had been added, 2-Cl—C.OXT-A was added so that its concentration became 100 μmol/l. Thus, a medium was prepared. Using the medium, human umbilical vein endothelial cells (HUVEC) were cultured for predetermined periods (0, 10, 20, 30, 45, and 60 minutes).
After the culture, cells were collected. The collected cells were lysed by adding a cell lysis buffer (SDS-lysis buffer) thereto, and heat-denatured at 95° C. for 5 minutes. The solubilized protein in an amount corresponding to 5 v/v % of the heat-denatured cell lysate was subjected to electrophoresis using 10% SDS-polyacrylamide gel, whereby the solubilized protein was transferred onto a nitrocellulose membrane (Amersham Biosciences). To 20 ml of TBS-T having the following composition, skim milk (Wako) was added so that its concentration became 5%, thus preparing a blocking solution. The resultant nitrocellulose membrane was immersed in the blocking solution and shaken at room temperature for 1 hour.
(§1) Primary antibodies shown below were diluted 1000-fold by adding them to 5% bovine serum albumin (Sigma)-containing TBS-T, thus preparing a primary antibody solution. The nitrocellulose membrane after being subjected to the blocking was immersed in the primary antibody solution, and shaken at room temperature for 1 hour. The resultant nitrocellulose membrane was immersed in the TBS-T and washed by being shaken for 10 minutes. This washing operation was carried out three times in total.
as §1, with “Secondary” for “Primary”, “20000-fold” for “1000-fold”, “to” for “to 5% bovine serum albumin (Sigma)-containing”, “secondary” for “primary”, “having undergone” for “after being subjected to”, “reaction with the primary antibodies” for “blocking”
The enzymes were visualized with SuperSignal (registered trademark) West Pico Chemiluminescent Substrate (Pierce), and detected by being exposed to RX—U X-ray film (FUJIFILM Corporation). From the detected bands, the respective phosphoenzymes and total enzymes were quantified using an NIH image software. Furthermore, the relative value (−fold) of each phosphoenzyme was calculated by substituting the measured value of the phosphoenzyme into the following equation (III).
Relative value(−fold)of phosphoenzyme=(B/D)/(A/C) (III)
In the present example, the effect of 2-Cl—C.OXT-A of Example 1 and C.OXT-G of Comparative Example 2 on the activation (phosphorylation) of ERK was examined. In the present example, the amount of each enzyme was measured and the relative value (−fold) of each phosphoenzyme was calculated in the same manner as in Example 3, except that: a medium to which 2-Cl—C.OXT-A had been added so as to achieve predetermined concentrations (0, 10 and 100 μmol/l) and a medium to which 100 μmol/l C.OXT-G had been added were used; the culture period after the addition was set to 20 minutes: as the primary antibodies, only an anti-phospho ERK polyclonal antibody (Catalog No. 9101, Cell Signaling Technology) and an anti-total ERK monoclonal antibody (Catalog No. 610408, BD Transduction Laboratory) were used; as the secondary antibody for ERK, a sheep HRP-labeled anti-mouse IgG antibody (Pierce) was used; and as a secondary antibody of pERK, a sheep HRP-labeled anti-rabbit IgG antibody (Pierce) was used.
In the present example, the effect of PD98059 as an MEK inhibitor on the ERK activation (phosphorylation) by 2-Cl—C.OXT-A used in Example 1 was examined. […]

[1] = system: human umbilical vein endothelial cells (HUVEC) and normal human dermal fibroblasts; assay: Measurement of lumen formation (angiogenesis kit, CD31 immunostaining, lumen area); format: cell-based; settings: for lumen formation promoting-activity for vascular endothelial cells: examined in the same manner as in Example 1
Method: The measurement of lumen formation was carried out in the following manner using commercially available angiogenesis kits (Kurabo), each including human umbilical vein endothelial cells (HUVEC) and normal human dermal fibroblasts. First, sample solutions were prepared by dissolving 2-Cl—C.OXT-A in physiological saline so as to achieve predetermined concentrations (1, 10, 100, 500 μmol/l, 1, 5, 10, 50 mmol/l). Then, the sample solutions containing 2-Cl—C.OXT-A at the predetermined concentrations respectively were added to media provided in the kits so that their concentrations became 10 v/v %. Thus, lumen formation media were prepared. The final concentrations of 2-Cl—C.OXT-A in the lumen formation media were 0.1, 1, 10, 50, 100, 500 μmol/l, 1 and 5 mmol/1.
Using each of the lumen formation media, the human umbilical vein endothelial cells (HUVEC) and the normal human dermal fibroblasts were cultured for 10 days. After the culture, the human umbilical vein endothelial cells (HUVEC) were immunostained using a lumen staining kit (for CD31 staining, Kurabo). Then, using NIH Image (image processing and analysis software), the area of a portion stained by the immunostaining (lumen area) was measured. As a control, a medium provided in the kit was used instead of the lumen formation medium to carry out the culture, and the cells were immunostained and the lumen area was measured in the same manner as in the above. Then, using the following equation (II), the relative value of lumen area in the culture using each of the lumen formation media containing 2-Cl—C.OXT-A at the predetermined concentrations was calculated.
In the present example, the relative value of lumen area was calculated in the same manner as in the lumen formation measurement in Example 1, except that the measurement was carried out with respect to four groups respectively using media Nos. 5 to 8 prepared by adding 2-Cl—C.OXT-A and PD98059 to media provided in the above-described angiogenesis kits (Kurabo) so that their concentrations became as shown in Table 2 below. In the group using the medium No. 7, the culture was conducted using the medium No. 7 from the first to third days of the culture and the medium No. 5 from the fourth to tenth days of the culture, and in the group using the medium No. 8, the culture was conducted using the medium No. 8 from the first to third days of the culture and the medium No. 6 from the fourth to tenth days of the culture.
In the present example, the relative value of lumen area was calculated in the same manner as in the lumen formation measurement in Example 1, except that the measurement was carried out with respect to six groups respectively using media Nos. 15 to 20 prepared by adding 2-Cl—C.OXT-A, VEGF (positive control), and SU5416 to media provided in the above-described angiogenesis kit (Kurabo) so that their concentrations became as shown in Table 4 below. In the group using the medium No. 16, the culture was conducted using the medium No. 16 from the first to third days of the culture and the medium No. 15 from the fourth to tenth days of the culture; in the group using the medium No. 18, the culture was conducted using the medium No. 18 from the first to third days of the culture and the medium No. 17 from the fourth to tenth days of the culture; and in the group using the medium No. 20, the culture was conducted using the medium No. 20 from the first to third days of the culture and the medium No. 19 from the fourth to tenth days of the culture.

[2] = system: Human umbilical vein endothelial cells (HUVEC); assay: Measurement of cell migration (CytoSelect 24-well Cell Migration Assay); format: cell-based; settings: examined in the same manner as in Example 1
Method: Measurement of cell migration was carried out in the following manner using CytoSelect 24-well Cell Migration Assay (CBA-100, Cell Biolabs) kits. First, sample solutions were prepared by dissolving 2-Cl—C.OXT-A in physiological saline so as to achieve predetermined concentrations (0.1, 0.5, 1 mmol/l). Then, the sample solutions containing 2-Cl—C.OXT-A at the predetermined concentrations respectively were added to HuMedia-EB2 media (Kurabo) to which 2 v/v % inactivated fetal bovine serum (FBS) had been added so that their concentrations became 10 v/v %. Thus, cell migration media were prepared. The final concentrations of 2-Cl—C.OXT-A in the cell migration media were 10, 50, and 100 μmol/l.
Human umbilical vein endothelial cells (HUVEC) were suspended in a HuMedia-EB2 medium (Kurabo) to which 2 v/v % inactivated fetal bovine serum (FBS) had been added at a density of 0.5×10^6 cells/ml. Thus, a cell suspension was prepared. 300 μl of the cell suspension was added to an upper compartment (i.e., in an insert) of a polycarbonate membrane plate provided in the kit, and 500 μl of the cell migration medium was added to a lower compartment (i.e., in a well) of the plate. Then, the cells were cultured at 37° C. for 24 hours. After the completion of the culture, the membrane on the inner bottom face of the insert was wiped out with a cotton swab to remove the cells on the membrane. Then, cells having migrated to the rear face of the membrane (the membrane on the outer bottom face of the insert) were stained using a staining solution provided in the kit, and then photographed from below the insert. After the photographing, the dye was extracted with an extracting solution provided in the kit, and the absorbance at 560 nm was measured using a microplate reader. As a control, a HuMedia-EB2 medium (Kurabo) to which 2 v/v % inactivated fetal bovine serum (FBS) had been added was used instead of the cell migration medium to carry out the culture, and the cells were stained and the absorbance was measured in the same manner as in the above. Then, using the above equation (I), the relative absorbance in the culture using each of the cell migration media containing 2-Cl—C.OXT-A at the predetermined concentrations was calculated.

[3] = system: Human umbilical vein endothelial cells (HUVEC); assay: Measurement of cell proliferation (Cell Counting Kit-8); format: cell-based; settings: examined in the same manner as in Example 1
Method: Sample solutions were prepared by dissolving 2-Cl—C.OXT-A in physiological saline so as to achieve predetermined concentrations (0.5, 1, 5, 10, 50, 100 mmol/l). Then, the sample solutions containing 2-Cl—C.OXT-A at the predetermined concentrations respectively were added to HuMedia-EB2 media (Kurabo) to which 2 v/v % inactivated fetal bovine serum (FBS) had been added so that their concentrations became 10 v/v %. Thus, cell proliferation media were prepared. The final concentrations of 2-Cl—C.OXT-A in the cell proliferation media were 50, 100, 500 μmol/l, 1, 5, and 10 mmol/1.
Human umbilical vein endothelial cells (HUVEC) suspended in a HuMedia-EG2 medium (Kurabo) were inoculated into each of gelatin-coated wells of a 96-well plate at a density of 3×10^3 cells per well, and cultured for 24 hours. 24 hours after the start of the culture, the medium was removed, and 100 μl of the cell proliferation medium was added to each well. The cells were cultured for another 48 hours. After the completion of the culture, a color reaction was caused using a Cell Counting Kit-8 (Dojindo Laboratories). 2 hours after the start of the reaction, the absorbance at 450 nm was measured using a microplate reader. As a control, a HuMedia-EB2 medium (Kurabo) to which 2 v/v % inactivated fetal bovine serum (FBS) had been added was used instead of the cell proliferation medium to carry out the culture, and a color reaction was caused and the absorbance was measured in the same manner as in the above. Then, using the following equation (I), the relative absorbance in the culture using each of the cell proliferation media containing 2-Cl—C.OXT-A at the predetermined concentrations was calculated.

| Structure (SMILES) | amount of pERK (ERK; Example 4, 100 μmol/l C.OXT-G, 20 minutes) | increase in pERK (ERK; Example 6, medium No. 3: only PD98059 100 nmol/l) | ERK activation by 2-Cl—C.OXT-A in the presence of PD98059 (ERK; Example 6, medium No. 4: 2-Cl—C.OXT-A 100 μmol/l + PD98059 100 nmol/l) | relative value of lumen area compared with control ([1]; Example 7, medium No. 8: 2-Cl—C.OXT-A 10 μmol/l + PD98059 10 nmol/l (first to third days)) | cell migration promoting-activity for vascular endothelial cells [2] | cell proliferation promoting-activity for vascular endothelial cells [3] | lumen formation promoting-activity for vascular endothelial cells [1] |
| --- | --- | --- | --- | --- | --- | --- | --- |
| Nc1nc2c(ncn2C2CC(CO)C2CO)c(=O)[nH]1 (stereo not drawn) [C.OXT-G, 2-amino-9-[trans-trans-2,3-bis(hydroxymethyl)cyclobutyl]-3H-purine-6-one, reference compound] | not increased | – | – | – | – | – | – |
| COc1cccc(-c2cc(=O)c3ccccc3o2)c1N [PD98059, reference compound] | – | not observed | inhibited | about 1 fold | – | – | – |
| CC(=O)OCC1CC(n2cnc3c(=O)[nH]c(N)nc32)C1COC(C)=O (stereo not drawn) [chemical formula (17), 9-[trans-trans-2,3-bis(acetyloxymethyl)cyclobutyl]guanine] | – | – | – | – | exhibited | exhibited | exhibited |
| CC(=O)OCC1CC(n2c(Br)nc3c(=O)[nH]c(N)nc32)C1COC(C)=O (stereo not drawn) [chemical formula (18), 8-bromo-9-[trans-trans-2,3-bis(acetyloxymethyl)cyclobutyl]guanine] | – | – | – | – | exhibited | exhibited | exhibited |
| Nc1nc2c(nc(Br)n2C2CC(CO)C2CO)c(=O)[nH]1 (stereo not drawn) [chemical formula (19), 8-bromo-9-[trans-trans-2,3-bis(hydroxymethyl)cyclobutyl]guanine] | – | – | – | – | exhibited | exhibited | exhibited |
| CC(=O)OCC1CC(n2c(Cl)nc3c(Cl)nc(N)nc32)C1COC(C)=O (stereo not drawn) [chemical formula (20), 2-amino-6,8-dichloro-9-[trans-trans-2,3-bis(acetyloxymethyl)cyclobutyl]purine] | – | – | – | – | exhibited | exhibited | exhibited |
| COc1nc(N)nc2c1nc(OC)n2C1CC(CO)C1CO (stereo not drawn) [chemical formula (21), 2-amino-6,8-dimethoxy-9-[trans-trans-2,3-bis(hydroxymethyl)cyclobutyl]purine] | – | – | – | – | exhibited | exhibited | exhibited |
